According to patent US20090105200A1, “Combination therapy” (priority 2007, published 2009):

Tests used:
[1] = tested on: dexamethasone-resistant (MM.1R) human myeloma cells; experiment: Apoptosis by Annexin V staining and flow cytometry; assay type: cell-based; settings: 24 hours; 1 nM romidepsin with 2 nM bortezomib
[2] = tested on: bortezomib-resistant cells (U266/PS-R); experiment: Apoptosis by Annexin V-FITC staining and flow cytometry; assay type: cell-based, human; settings: 48 hours; 2 nM romidepsin with 5-15 nM bortezomib
primary CLL cells = experiment: Cell death by 7AAD staining/flow cytometry and Wright-Giemsa stained cytospin slides; assay type: cell-based, human; settings: 24 hours; for toxicity to CLL cells (photomicrographs): individual treatment, 3 nM
NF-κB = assay type: cell-based, human; settings: romidepsin alone
Protocol: (§1) Methods. […] Immunoblot analysis (30 μg of protein per condition) was performed to detect cleavage of caspase-12 and PARP, levels of IκB c, phospho-IκBα, p65, p100/p52, as well as expression of NF-κB downstream anti-apoptotic proteins. Parallel studies were performed in two established CLL cell lines (JVM-3 and MEC-2, DSMZ).

Mcl-1 = experiment: Immunoblot analysis of Mcl-1; assay type: cell-based, human
Protocol: as §1

[3] = Phase I/II dose escalation trial: toxicity and maximum tolerated dose; assay type: in vivo, human; settings: dose level 2; with bortezomib 1.3 mg/m^2 and dexamethasone 20 mg; 28-day cycle
Source text: The trial design is illustrated in FIG. 10.
Specifically, during phase I (accelerated dose escalation phase), an accelerated titration design was used to ascertain the MTD of romidepsin. For example, if no dose limiting toxicities (DLTs) and <2 patients have moderate toxicities in cycle 1 (C1), the next patient is entered at one level higher. According to National Cancer Institute Common Toxicity Criteria (NCI-CTC) (version 3), DLT is defined as platelets<25×10^9/L; Grade 4 neutropenia despite G-CSF support; Grade 3 or 4 nausea, emesis, or diarrhea despite treatment; any other Grade 3 or 4 non-haematological toxicity; or >4 week suspension of treatment due to toxicity. The accelerated phase ends when one patient has a DLT during C1 or two patients have “moderate” toxicity during first treatment cycles. Patients were entered in cohorts of three according to the standard dose escalation design. A maximum of six patients were treated at any dose level. MTD is defined as the highest dose level at which the incidence of DLT is less than 33%. […]

NF-κB2 precursor p100 = experiment: Immunoblot analysis of p100/p52; assay type: cell-based, human; settings: bortezomib with romidepsin
Protocol: as §1

[4] = bortezomib 3 nM with romidepsin 3-5 nM, five patients

SMILES | effect on bortezomib lethality [1] | effect on bortezomib lethality [2] | primary CLL samples with additive lethality (primary CLL cells; [4]) | primary CLL samples with increased bortezomib lethality (primary CLL cells; [4]) | toxicity to CLL cells (photomicrographs) (primary CLL cells) | NF-κB activity (NF-κB) | bortezomib-induced Mcl-1 accumulation (Mcl-1; cells co-exposed to romidepsin) | maximum tolerated dose of romidepsin [3] | processing of NF-κB2 precursor p100 into p52 (NF-κB2 precursor p100) | Mcl-1 level (Mcl-1; bortezomib alone)
C/C=C1\NC(=O)[C@H]2CSSCC/C=C/[C@H](CC(=O)N[C@H](C(C)C)C(=O)N2)OC(=O)[C@H](C(C)C)NC1=O [romidepsin, (1S,4S,10S,16E,21R)-7-[(2Z)-ethylidene]-4,21-diisopropyl-2-oxa-12,13-dithia-5,8,20,23-tetraazabicyclo[8.7.6]tricos-16-ene-3,6,9,19,22-pentanone] | potentiate bortezomib lethality | potentiates bortezomib lethality | additive lethality in one sample | dramatically increased bortezomib lethality in four out of five primary CLL samples | relatively non-toxic | activated NF-κB activity | diminished | 10 mg/m^2 |  | 
CC(C)C[C@H](NC(=O)[C@H](Cc1ccccc1)NC(=O)c1cnccn1)B(O)O [bortezomib, [(1R)-3-methyl-1-[[(2S)-1-oxo-3-phenyl-2-[(pyrazinylcarbonyl)amino]propyl]amino]butyl]boronic acid] |  |  |  |  | relatively non-toxic |  |  |  | blocked romidepsin-mediated processing of NF-κB2 precursor p100 into its active p52 form | induced accumulation of Mcl-1
